# According to patent US20240208969A1, “SUBSTITUTED FUSED BICYCLIC COMPOUNDS AS PARP INHIBITORS AND THE USE THEREOF” (IMPACT THERAPEUTICS (SHANGHAI), INC., priority 2021, published 2024):
# Tested on: MDA-MB-436 cells
# Experiment: Inhibition of proliferation of human breast cancer MDA-MB-436 cell line (CCK-8, 7 days)
# Assay type: cell-based
# Conditions: Homo sapiens, 168 h, proliferation of MDA-MB-436, 7 days
# Protocol: The cells were cultured in complete medium (DMEM medium +10% FBS+Insulin+glutathione). When the confluence reached about 80%, cells were digested and gently dispensed from the bottom of the dish with a 1 mL pipette. Cell suspension was collected and centrifuged at 500 rpm for 3 min. The supernatant was discarded, and the cell pellet were re-suspended in complete medium. The cells were seeded into a culture dish at an appropriate proportion, and then cultured in a 5% CO2 incubator at 37° C. The assay was carried out when the cells were in optimum condition and the confluence was reached 80%. Cells were harvested in the logarithmic growth phase by using 1 mL pipette gently and then centrifugated at 500 rpm for 3 min. The cells were resuspended by using refresh medium after removing the supernatant and then the cells were counted. The cells were seeded at 3000/well in a 96 well plate and incubated at 37° C. 5% CO2 incubator overnight. In the second day, cells were treated with compound at 8 serially diluted dose with 1000×final concentration in 100% DMSO. The compound was prepared as below: 1000×dilution tested compound solution to 40×test compound solution by adding 5μL, 1000×compound solution to 120 μL Medium (25-fold dilution). The solution was mixed by oscillation. DMSO was used as the control.
# The medium was removed from the wells in the plate after the plate was taken out from incubator. Then, fresh medium of 195 μL/per well was added to the 96 well plate. 5μL/per well of 40×test compound solution was added into the 96 well plate. Finally, the plate was incubated for 7 days in a 37° C. 5% CO2 incubator. The medium containing compound was changed once on the fourth day. After 7 days, 20 μL of CCK-8 was added to each well and shake gently, then was cultured for 4 hours. The plate was shaken for 5 min after incubation, the absorbance values of 450 nm. and 650nm wavelengths were recorded respectively (OD=absorbance value of 450 nm−absorbance value of 650 nm) by using the multifunction readout instrument.
# Data were analyzed by software GraphPad Prism 6.0. The inhibitory activity of compounds on cell proliferation was plotted using cell survival rate against the compound concentration as coordinates. Cell survival rate %=(ODcompound−ODbackground)/(ODDMSO−ODbackground)×100. The IC50 value was fitted by the s-shaped dose response curve equation: Y=100/(1+10^(log C−log IC50)), and C was the compound concentration.
# Table 2 summarizes the inhibitory effect data (IC50) of the compounds on the proliferation of human breast cancer cells MDA-MB-436, wherein ++++ indicates 1<IC50≤10 nM; +++ indicates 10 nM<IC50≤100 nM; ++ indicates 100 nM<IC50≤1 μM; + indicates IC50>1 μM.
row,SMILES,IC50
1,"CCn1c(=O)[nH]c2cc(CN3CCN(c4ccc(C(=O)NC)nc4C)CC3)c(C)cc2c1=O [Example 52, 5-(4-((3-ethyl-6-methyl-2,4-dioxo-1,2,3,4-tetrahydroquinazolin-7-yl)methyl)piperazin-1-yl)-N,6-dimethylpicolinamide]",> 1000 nM
2,"CCn1c(=O)[nH]c2cc(CN3CCN(c4cnc(C(=O)NC)c(C)c4)CC3)ccc2c1=O [Example 51, 5-(4-((3-ethyl-2,4-dioxo-1,2,3,4-tetrahydroquinazolin-7-yl)methyl)piperazin-1-yl)-N,3-dimethylpicolinamide]",> 1000 nM
3,"CCNC(=O)c1ccc(N2CCN(Cc3ccc4c(=O)n(C)c(=O)[nH]c4c3)CC2)c(Cl)n1 [Example 100, 6-chloro-N-ethyl-5-(4-((3-methyl-2,4-dioxo-1,2,3,4-tetrahydroquinazolin-7-yl)methyl)piperazin-1-yl)picolinamide]",100 to 1000 nM
4,"CCN1Cc2c(F)cc(CN3CCN(c4ccc(C(=O)NC)nc4F)CC3)cc2NC1=O [Example 134, 5-(4-((3-ethyl-5-fluoro-2-oxo-1,2,3,4-tetrahydroquinazolin-7-yl)methyl)piperazin-1-yl)-6-fluoro-N-methylpicolinamide]",10 to 100 nM
5,"CCn1c(=O)[nH]c2cc(-c3cc(F)cc(C(=O)Nc4ccc(C(=O)NC)nc4)c3)ccc2c1=O [Example 43, 5-(3-(3-ethyl-2,4-dioxo-1,2,3,4-tetrahydroquinazolin-7-yl)-5-fluorobenzamido)-N-methylpicolinamide]",> 1000 nM
6,"CNC(=O)c1ccc(N2CCN(Cc3ccc4c(=O)n(CC(F)(F)F)c(=O)[nH]c4c3)CC2)c(C)n1 [Example 87, 5-(4-((2,4-dioxo-3-(2,2,2-trifluoroethyl)-1,2,3,4-tetrahydroquinazolin-7-yl)methyl)piperazin-1-yl)-N,6-dimethylpicolinamide]",> 1000 nM
7,"CCn1c(=O)[nH]c2cc(-c3cccc(C(=O)Nc4ccc(C(=O)NC)nc4)c3)cnc2c1=O [Example 45, 5-(3-(3-ethyl-2,4-dioxo-1,2,3,4-tetrahydropyrido[3,2-d]pyrimidin-7-yl)benzamido)-1-methylpicolinamide]",> 1000 nM
8,"CCNC(=O)c1ccc(N2CCN(Cc3cnc4c(=O)n(CC)c(=O)[nH]c4c3)CC2)c(C)n1 [Example 103, N-ethyl-5-(4-((3-ethyl-2,4-dioxo-1,2,3,4-tetrahydropyrido[3,2-d]pyrimidin-7-yl)methyl)piperazin-1-yl)-6-methylpicolinamide]",10 to 100 nM
9,"CCn1c(=O)[nH]c2cc(CN3CCN(c4cnc(C(=O)NC)cc4C)CC3)ccc2c1=O [Example 50, 5-(4-((3-ethyl-2,4-dioxo-1,2,3,4-tetrahydroquinazolin-7-yl)methyl)piperazin-1-yl)-N,4-dimethylpicolinamide]",> 1000 nM
10,"CCn1c(=O)[nH]c2cc(CN3CCN(c4ccc(C(=O)NC)nc4C(F)(F)F)CC3)ccc2c1=O [Example 23, 5-(4-((3-ethyl-2,4-dioxo-1,2,3,4-tetrahydroquinazolin-7-yl)methyl)piperazin-1-yl)-N-methyl-6-(trifluoromethyl)picolinamide]",100 to 1000 nM
11,"CCN1Cc2ccc(CN3CCN(c4ccc(C(=O)NC5CC5)nc4C)CC3)cc2NC1=O [Example 137, N-cyclopropyl-5-(4-((3-ethyl-2-oxo-1,2,3,4-tetrahydroquinazolin-7-yl)methyl)piperazin-1-yl)-6-methylpicolinamide]",10 to 100 nM
12,"CCn1c(=O)[nH]c2cc(CN3CCN(c4ccc(C(=O)NC5CC5)nc4Cl)CC3)cc(Cl)c2c1=O [Example 131, 6-chloro-5-(4-((5-chloro-3-ethyl-2,4-dioxo-1,2,3,4-tetrahydroquinazolin-7-yl)methyl)piperazin-1-yl)-N-cyclopropylpicolinamide]",1 to 10 nM

# Results, then the compound that gave them:
row,IC50,SMILES
1,10 to 100 nM,"CCN1Cc2ncc(CN3CCN(c4ccc(C(=O)NC)nc4)CC3)cc2NC1=O [Example 144, 5-(4-((3-ethyl-2-oxo-1,2,3,4-tetrahydropyrido[3,2-d]pyrimidin-7-yl)methyl)piperazin-1-yl)-N-methylpicolinamide]"
2,10 to 100 nM,"CCN1Cc2c(F)cc(CN3CCN(c4ccc(C(=O)NC)nc4Cl)CC3)cc2NC1=O [Example 120, 6-chloro-5-(4-((3-ethyl-5-fluoro-2-oxo-1,2,3,4-tetrahydroquinazolin-7-yl)methyl)piperazin-1-yl)-N-methylpicolinamide]"
3,> 1000 nM,"CCn1c(=O)[nH]c2cc(CN3CCN(c4ccc(C(=O)NC)nc4C)CC3)c(Cl)cc2c1=O [Example 53, 5-(4-((6-chloro-3-ethyl-2,4-dioxo-1,2,3,4-tetrahydroquinazolin-7-yl)methyl)piperazin-1-yl)-N,6-dimethylpicolinamide]"
4,1 to 10 nM,"CCN1Cc2ccc(CN3CCN(c4ccc(C(=O)NC5CC5)nc4Cl)CC3)cc2NC1=O [Example 132, 6-chloro-N-cyclopropyl-5-(4-((3-ethyl-2-oxo-1,2,3,4-tetrahydroquinazolin-7-yl)methyl)piperazin-1-yl)picolinamide]"
5,> 1000 nM,"CNC(=O)c1ccc(N2CCN(Cc3cnc4c(=O)n(C)c(=O)[nH]c4c3)CC2)cn1 [Example 2, 5-(4-((3-methyl-2,4-dioxo-1,2,3,4-tetrahydropyrido[3,2-d]pyrimidin-7-yl)methyl)piperazin-1-yl)-N-methylpicolinamide]"
6,> 1000 nM,"CCn1c(=O)[nH]c2cc(CN3CCN(c4ccn5c(=O)ccnc5c4)CC3)ccc2c1=O [Example 38, 3-ethyl-7-((4-(4-oxo-4H-pyrido[1,2-a]pyrimidin-8-yl)piperazin-1-yl)methyl)quinazoline-2,4(1H,3H)-dione]"
7,100 to 1000 nM,"CCn1c(=O)[nH]c2cc(CN3CCN(c4ccc(C(=O)NC)nc4OC)CC3)cnc2c1=O [Example 109, 5-(4-((3-ethyl-2,4-dioxo-1,2,3,4-tetrahydropyrido[3,2-d]pyrimidin-7-yl)methyl)piperazin-1-yl)-6-methoxy-N-methylpicolinamide]"
8,100 to 1000 nM,"CNC(=O)c1ccc(N2CCN(Cc3ccc4c(=O)n(C)c(=O)[nH]c4c3)CC2)c(Cl)n1 [Example 98, 6-chloro-N-methyl-5-(4-((3-methyl-2,4-dioxo-1,2,3,4-tetrahydroquinazolin-7-yl)methyl)piperazin-1-yl)picolinamide]"
9,> 1000 nM,"CCn1c(=O)[nH]c2cc(CN3CCN(c4ccc(C(=O)NC)nc4C(C)C)CC3)ccc2c1=O [Example 80, 5-(4-((3-ethyl-2,4-dioxo-1,2,3,4-tetrahydroquinazolin-7-yl)methyl)piperazin-1-yl)-6-isopropyl-N-methylpicolinamide]"
10,1 to 10 nM,"CCNC(=O)c1ccc(N2CCN(Cc3cc(Cl)c4c(=O)n(CC)c(=O)[nH]c4c3)CC2)c(Cl)n1 [Example 126, 6-chloro-5-(4-((5-chloro-3-ethyl-2,4-dioxo-1,2,3,4-tetrahydroquinazolin-7-yl)methyl)piperazin-1-yl)-N-ethylpicolinamide]"
11,> 1000 nM,"CCn1c(=O)[nH]c2cc(CN3CCN(c4ccc5cc[nH]c5c4)CC3)ccc2c1=O [Example 110, 7-((4-(1H-indol-6-yl)piperazin-1-yl)methyl)-3-ethylquinazoline-2,4(1H,3H)-dione]"
12,100 to 1000 nM,"CCn1c(=O)[nH]c2cc(CN3CCN(c4ccc(C(=O)NC)nc4Cl)CC3)c(Cl)cc2c1=O [Example 65, 6-chloro-5-(4-((6-chloro-3-ethyl-2,4-dioxo-1,2,3,4-tetrahydroquinazolin-7-yl)methyl)piperazin-1-yl)-N-methylpicolinamide]"
13,> 1000 nM,"CCn1c(=O)[nH]c2cc(CN3CCN(c4ccc5cn[nH]c5c4)CC3)ccc2c1=O [Example 111, 7-((4-(1H-indazol-6-yl)piperazin-1-yl)methyl)-3-ethylquinazoline-2,4(1H,3H)-dione]"
14,100 to 1000 nM,"CCNC(=O)c1ccc(N2CCN(Cc3ccc4c(=O)n(C)c(=O)[nH]c4c3)CC2)c(C)n1 [Example 101, N-ethyl-6-methyl-5-(4-((3-methyl-2,4-dioxo-1,2,3,4-tetrahydroquinazolin-7-yl)methyl)piperazin-1-yl)picolinamide]"
15,> 1000 nM,"CCn1c(=O)[nH]c2cc(CN3CCN(c4c(C)cc(C(=O)NC)nc4C)CC3)ccc2c1=O [Example 72, 5-(4-((3-ethyl-2,4-dioxo-1,2,3,4-tetrahydroquinazolin-7-yl)methyl)piperazin-1-yl)-N,4,6-trimethylpicolinamide]"
16,10 to 100 nM,"CCn1c(=O)[nH]c2cc(CN3CCN(c4ccc(C(=O)NC)nc4C)CC3)cc(F)c2c1=O [Example 56, 5-(4-((3-ethyl-5-fluoro-2,4-dioxo-1,2,3,4-tetrahydroquinazolin-7-yl)methyl)piperazin-1-yl)-N,6-dimethylpicolinamide]"
